Reference: article PMC8541628, “Development of Novel Quinoline-Based Sulfonamides as Selective Cancer-Associated Carbonic Anhydrase Isoform IX Inhibitors” (International Journal of Molecular Sciences, 2021)
Read-outs that look alike come from different tables or passages of the source.

Assays:
active caspase-3 [1] = assay: active caspase-3 level (ELISA) in MCF-7 cells; type: cell-based, human; details: 24 h incubation
Method: (§1) The levels of two members of Bcl-2 family proteins, the anti-apoptotic Bcl-2 protein, and the counteracting pro-apoptotic Bax protein, as well as the level of active caspase-3 (a key executioner protease) in MDA-MB-231 and MCF-7 cells have been assessed after incubation with QBS 11c and 13b for 24 h.
(§2) All adopted procedures for the conducted in vitro biological assays were performed as described earlier; CA (stopped-flow), cytotoxicity (MTT [37, 38]), and assessment of apoptotic markers assays, as well as induction of hypoxia with cobalt chloride, and were mentioned in the Supporting Materials. […]
(§3) monolay er. Cell monolay ers were treated in quadrates with vehicle (DMSO, 0.1% v/v), test samples or Adriamycin as positive control for an exposure time of 72 h. At the end of exposure, MTT solution in PBS (5 mg/ml) was then added to all well including no cell blank and left to incubate for 90 min. The formation of formazan crystals were visually confirmed using phase contract microscopy. DMSO (100 µl/well) was added to dissolve the formazan crystals with shaking for 10 min after which the absorbance was read at 590 nm against no cell blanks on a FLuo Star Optima microplate reader (BMG technologies, Germany). Cell proliferation was calculated comparing the OD values of the DMSO control wells and those of the samples represented as % proliferation to the control. Dose-response experiment was performed on samples producing > or =50% loss of cell proliferation using five serial 2-fold dilutions (50, 25, 12.5, 6.25 and 3.125 µM) of the sample. IC50 values (concentration of sample causing 50% loss of cell proliferation of the vehicle control) were calculated using non-linear regression curve fitting of the dose response plots on GraphPad Prism V.6.0 software.
(§4) 3. Assessment of Apo ptotic Markers Levels
(§5) The levels of the pro-apoptotic markers (Bax and active caspase-3) as well as the anti-apoptotic marker Bcl-2 were determined using ELISA kits; Human Bax ELISA Kit (EIA-4487) DRG® Instruments, Bcl-2 ELISA Kit (99–0042), Zymed® Laboratories, Invitrogen Immunodetection, and Human Caspase-3 (active) ELISA Kit (KHO1091) Invitrogen®, per the manufacturer’s instructions. Breast cancer MDA-MB-231 and MCF-7 cells were cultured as a monolayer in T-25 flasks and were seeded to attain 30% confluency prior to treatment. Cells were then treated separately with MBFS 11b at its IC50 concentration for 24 h. […]
(§6) captured protein, forming a “sandwich” of specific antibodies around the desired protein in the cell lysate. […] The HRP domain reacted with the added TMB substrate to form a colored product that measured at 450 nm by a plate reader ChroMate-4300 after the reaction was terminated via the addition of stop solution. […]

active caspase-3 [2] = assay: active caspase-3 level (ELISA) in MDA-MB-231 cells; type: cell-based, human; details: 24 h incubation
Method: as §1, §2, §4
(§7) The levels of the pro-apoptotic markers (Bax and active caspase-3) as well as the anti-apoptotic marker Bcl-2 were determined using ELISA kits; Human Bax ELISA Kit (EIA-4487) DRG® Instruments, Bcl-2 ELISA Kit (99–0042), Zymed® Laboratories, Invitrogen Immunodetection, and Human Caspase-3 (active) ELISA Kit (KHO1091) Invitrogen®, per the manufacturer’s instructions. Breast cancer MDA-MB-231 and MCF-7 cells were cultured as a monolayer in T-25 flasks and were seeded to attain 30% confluency prior to treatment. Cells were then treated separately with MBFS 11b at its IC50 concentration for 24 h. At the end of treatment, cells were collected via trypsinization and centrifuged at 10,000 rpm. The pellet was then rinsed with PBS and lysed in RIPA lysis buffer at 4 °C for 45 min, then centrifuged at 14,000 rpm for 20 min to remove the cellular debris. Lysates were then collected and stored at −80 °C for later protein determination using Pierce BCA Protein Assay Kit according to manufacturer’s recommendations.
(§8) The cell lysate was diluted 10 times, and 100 μL ([…]) was added to the wells of […] separate microtiter plates for the three ELISA kits th at were pre-coated with primary antibodies specific to Bax, Bcl-2, and caspase-3 proteins, respectively. A secondary biotin-linked antibody specific to the protein captured by the primary antibody was further added to bind the […]
(§9) captured protein, forming a “sandwich” of specific antibodies around the desired protein in the cell lysate. The streptavidin-HRP complex was then used to bind the biotin-linked secondary antibody through its streptavidin portion. The HRP domain reacted with the added TMB substrate to form a colored product that measured at 450 nm by a plate reader ChroMate-4300 after the reaction was terminated via the addition of stop solution. […]
(§10) The ligand 3D structures were prepared by Maestro and their ionization states was checked with Epik at pH 7.4±0.5 then they were subjected to energy minimization using OPLS3 force field in Macromodel with a maximum number of 2500 conjugate gradient iteration and a convergence of 0.05 kcal mol−1 A−1. […]

Bax [3] = assay: Bax expression level (ELISA) in MCF-7 cells; type: cell-based, human; details: 24 h incubation
Method: as §1, §2, §3, §4, §5, §6

Bcl-2 = Bcl-2 expression level (ELISA) in MDA-MB-231 cells; type: cell-based, human; details: for Bcl-2 / Bcl-2, folds of control: 24 h incubation; for decrease in the expression level of Bcl-2 protein: in comparison to the untreated control
Method: as §1, §2, §4, §7, §8, §9
The ligand 3D structures were prepared by Maestro and their ionization states was checked with Epik at pH 7.4±0.5 then they were subjected to energy minimization using OPLS3 force field in Macromodel with a maximum number of 2500 conjugate gradient iteration and a convergence of 0.05 kcal mol−1 A−1. Glide with default parameters was u sed to generate th e docking g rid setting the center of the co-crystallized lig and s as grid center. Docking was performed using the standard precision mode (SP) implemented in Glide and the top 5 poses for each ligand were returned. Prime MMGBSA was used for the refinement of the best pose for each ligand, using VSGB solvation model setting the receptor flexible within 3 A around the ligand.

Bax [4] = assay: Bax expression level (ELISA) in MDA-MB-231 cells; type: cell-based, human; details: 24 h incubation
Method: as §1, §2, §4, §7, §8, §9, §10

hCA IX = hCA IX (Homo sapiens, UniProt Q16790); assay: stopped flow carbon dioxide hydrase assay, hCA IX; details: for Selectivity ratio I/IX: hCA IX over hCA I; for Selectivity ratio II/IX: hCA IX over hCA II
hCA XII = hCA XII (Homo sapiens, UniProt O43570); assay: stopped flow carbon dioxide hydrase assay, hCA XII; details: for Selectivity ratio I/XII: hCA XII over hCA I; for Selectivity ratio II/XII: hCA XII over hCA II
hCA XII, sequence (O43570 25-354): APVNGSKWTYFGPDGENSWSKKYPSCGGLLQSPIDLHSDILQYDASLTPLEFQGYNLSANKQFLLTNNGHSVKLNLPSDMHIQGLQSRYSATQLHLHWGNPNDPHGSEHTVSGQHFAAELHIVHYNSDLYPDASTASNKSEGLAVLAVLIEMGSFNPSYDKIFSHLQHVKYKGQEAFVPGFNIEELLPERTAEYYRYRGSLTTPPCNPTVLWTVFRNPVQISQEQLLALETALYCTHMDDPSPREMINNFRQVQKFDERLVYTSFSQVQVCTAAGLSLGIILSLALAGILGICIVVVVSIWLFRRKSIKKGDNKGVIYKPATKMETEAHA

MDA-MB-231 = assay: 72 h MTT anti-proliferative assay under hypoxic conditions, MDA-MB-231; type: cell-based; details: Homo sapiens, mean ± S.D. of three experiments
Source text: 1. Carbonic anhydrase inhibition assay
The enzymes are recombinant proteins prepared in our lab.
parameters and inhibition constants.
2. Anti-proliferative action toward human breast cell lines

hCA I = hCA I (Homo sapiens, UniProt P00915); assay: stopped flow carbon dioxide hydrase assay, hCA I
hCA I, sequence (P00915 whole entry): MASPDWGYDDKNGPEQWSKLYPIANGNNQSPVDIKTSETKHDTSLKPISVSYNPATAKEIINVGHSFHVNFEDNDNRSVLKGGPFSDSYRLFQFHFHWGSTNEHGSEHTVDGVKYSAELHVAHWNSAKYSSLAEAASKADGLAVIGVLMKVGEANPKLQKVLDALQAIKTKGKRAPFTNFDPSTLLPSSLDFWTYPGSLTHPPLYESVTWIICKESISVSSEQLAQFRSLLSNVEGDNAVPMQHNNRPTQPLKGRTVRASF

hCA II = hCA II (Homo sapiens, UniProt P00918); assay: stopped flow carbon dioxide hydrase assay, hCA II

For `NS(=O)(=O)c1cccc(Nc2ccnc3ccc(Cl)cc23)c1` [11c, 3-((6-chloroquinolin-4-yl)amino)benzenesulfonamide], the “Active Caspase-3” value (active caspase-3 [1]) was 17.83 ± 0.62 Pg/mg of Total Protein, the “Active Caspase-3, folds of control” value (active caspase-3 [1]) was 3.64 folds of control and the “Active Caspase-3” value (active caspase-3 [2]) was 12.69 ± 1.14 Pg/mg of Total Protein. For the same molecule, the “Active Caspase-3, folds of control” value (active caspase-3 [2]) was 4.93 folds of control, the BAX (Bax [3]) was 512.9 ± 11.7 Pg/mg of Total Protein and the “BAX, folds of control” value (Bax [3]) was 5.36 folds of control. For the same molecule, the Bcl-2 (Bcl-2) was 6.45 ± 0.17 Pg/mg of Total Protein, the “Bcl-2, folds of control” value (Bcl-2) was 0.45 folds of control and the “decrease in the expression level of Bcl-2 protein” value (Bcl-2) was 55%. For the same molecule, the BAX (Bax [4]) was 420.9 ± 8.24 Pg/mg of Total Protein, the “BAX, folds of control” value (Bax [4]) was 7.1 folds of control and the “Selectivity ratio I/IX” value (hCA IX) was 52.7. For the same molecule, the “Selectivity ratio II/IX” value (hCA IX) was 18.4, the Ki (hCA IX; read-out: KI CA IX, stopped flow technique, mean from 3 different assays) was 8.4 nM and the Ki (hCA XII) was 55.3 nM. The “Selectivity ratio I/XII” value (hCA XII) was 8.0, the “Selectivity ratio II/XII” value (hCA XII) was 2.8 and the IC50 (MDA-MB-231) was 1030 ± 50 nM. It also gave a Ki (hCA I) of 442 nM and a Ki (hCA II) of 155 nM.

`COc1ccc2nccc(Nc3ccc(S(N)(=O)=O)cc3)c2c1` [13b, 4-((6-methoxyquinolin-4-yl)amino)benzenesulfonamide] was tested, and the “Active Caspase-3” value (active caspase-3 [1]) was 14.82 ± 0.43 Pg/mg of Total Protein, the “Active Caspase-3, folds of control” value (active caspase-3 [1]) was 3.02 folds of control and the “Active Caspase-3” value (active caspase-3 [2]) was 9.32 ± 0.73 Pg/mg of Total Protein. The “Active Caspase-3, folds of control” value (active caspase-3 [2]) was 3.62 folds of control, the BAX (Bax [3]) was 443.9 ± 10.2 Pg/mg of Total Protein and the “BAX, folds of control” value (Bax [3]) was 4.64 folds of control. For the same molecule, the Bcl-2 (Bcl-2) was 5.304 ± 0.13 Pg/mg of Total Protein, the “Bcl-2, folds of control” value (Bcl-2) was 0.37 folds of control and the “decrease in the expression level of Bcl-2 protein” value (Bcl-2) was 63%. For the same molecule, the BAX (Bax [4]) was 373.5 ± 10.4 Pg/mg of Total Protein, the “BAX, folds of control” value (Bax [4]) was 6.3 folds of control and the Ki (hCA IX) was 5.5 nM. For the same molecule, the “Selectivity ratio I/IX” value (hCA IX) was 16.7, the “Selectivity ratio II/IX” value (hCA IX) was 10.6 and the Ki (hCA XII) was 13.2 nM. The “Selectivity ratio I/XII” value (hCA XII) was 7.0, the “Selectivity ratio II/XII” value (hCA XII) was 4.4 and the IC50 (MDA-MB-231) was 2240 ± 100 nM. The Ki (hCA I) was 92.1 nM and the Ki (hCA II) was 58.4 nM.
